Patent US9163012B2, “Carbamate and urea inhibitors of 11β-hydroxysteroid dehydrogenase 1” (Vitae Pharmaceuticals, Inc., priority 2009, dated 2015)

How the values were obtained:
Format in all cases: biochemical
[1] = biological target: T1, 11β-HSD1 (Homo sapiens (Human), UniProt P28845); assay: Biological Test Example 4: HTRF assay of 11β-HSD1 in human liver microsomes; conditions: HTRF cortisol detection
Method: In vitro inhibition of 11β-HSD1 by test compounds is determined with HTRF (Homogeneous Time-Resolved Fluorescence) technology (cisbio international, France) detecting cortisol generated from […] by human liver microsomes. […] Cortisol generated in the reaction is then detected with a competitive immunoassay, involving two HTRF conjugates: cortisol linked to XL665 and anti-cortisol antibody labeled with Europium cryptate. The incubation period for detection reaction is typically 2 hours. […] The ratio of the two emission signals is then calculated (Em665*10000/Em615). […] Each assay also contains a calibration curve with cortisol to transform the fluorescent data into cortisol concentrations. Percent inhibition (% CTL) of each compound is determined relative to the carbenoxolone signal and IC50 curves are generated.
Target sequence in this assay (P28845 whole entry): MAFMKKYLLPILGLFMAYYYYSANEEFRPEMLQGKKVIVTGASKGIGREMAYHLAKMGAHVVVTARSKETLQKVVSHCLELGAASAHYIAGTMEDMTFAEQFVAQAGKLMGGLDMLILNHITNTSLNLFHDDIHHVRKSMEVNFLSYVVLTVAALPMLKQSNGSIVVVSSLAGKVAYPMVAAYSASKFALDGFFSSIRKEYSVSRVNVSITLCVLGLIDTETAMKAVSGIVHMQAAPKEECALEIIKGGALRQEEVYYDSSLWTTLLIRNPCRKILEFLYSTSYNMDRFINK

[2] = biological target: T1, 11β-HSD1; assay: Biological Test Example 3: inhibition of purified recombinant 11β-HSD1 (SPA); conditions: purified recombinant 11β-HSD1 expressed in E. coli, read-out: IC50 Range
Method: The inhibition of purified 11β-HSD1 by compounds of Formula I is measured using a Scintillation Proximity Assay. All reactions are carried out at room temperature in 96 well flexible Microbeta reaction plates. First, 1 μL of a 0.1 mM solution of a compound of Formula I is mixed in DMSO diluted in half-log increments (8 points) starting at 1 μM final concentration. To this dot is added 50 μL of substrate solution (50 mM HEPES, pH 7.4, 100 mM KCl, 5 mM NaCl, 2 mM MgCl2 containing 20 μM ^3H cortisone, 1 mM NADPH). […] The reaction is then incubated for 90 minutes, and stopped by adding 50 μl of SPA bead mix (18-β-glycyrrhetinic acid, 10 μM final, 5 mg/ml protein A coated YSi SPA beads, and 1 ug/ml α-cortisol antibody (East Coast Biologics)). The plate is shaken for 120 minutes, and the radioactivity corresponding to ^3H cortisol is measured on a Wallac Microbeta.
Target sequence in this assay (P28845 whole entry, species assumed): as the sequence (P28845 whole entry) above

[3] = biological target: T1, 11β-HSD1; assay: Biological Test Example 1: inhibition of a microsomal preparation of 11β-HSD1 (SPA); conditions: for IC50: Biological Test Example 1; for inhibition at 0.1 µM: read-out: Average % inhibition at 100 nM, Biological Test Example 1, 100 nM compound
Target sequence in this assay (P28845 whole entry): as above

[4] = microsomes from CHO cells overexpressing human 11β-HSD1, read-out: IC50 Range

For `N#Cc1ccn([C@@H]2CCN(C(=O)OC3C4CC5CC3CC(O)(C5)C4)C2)c(=O)c1` (single isomer, unassigned; isomer 1) [Example 78 Isomer 1], the IC50 [1] was over 10000 nM.

Work on `N#Cc1ccn([C@@H]2CCN(C(=O)OC3C4CC5CC3CC(O)(C5)C4)C2)c(=O)c1` (single isomer, unassigned; isomer 2) [Example 78 Isomer 2] yielded an IC50 [1] of 1170 nM.

Work on `O=C(OC1C2CC3CC(C2)CC1C3)N1CCCC1c1ccccc1` (centres unmarked) [EXAMPLE 7, 2-adamantyl 2-phenylpyrrolidine-1-carboxylate] yielded an IC50 [2] of under 100 nM.

`O=C(OC1C2CC3CC(C2)CC1C3)N1CCC(c2ccccc2)C1` (centres unmarked) [EXAMPLE 8, 2-adamantyl 3-phenylpyrrolidine-1-carboxylate] gave an IC50 [2] of under 100 nM.

In the case of `O=C(OC1C2CC3CC(C2)CC1C3)N1CCCC1Cc1ccccc1` (centres unmarked) [EXAMPLE 9, 2-adamantyl 2-benzylpyrrolidine-1-carboxylate], the IC50 [2] is reported as under 100 nM.

In the case of `O=C(OC1C2CC3CC(C2)CC1C3)N1CCC(Cc2ccccc2)C1` (centres unmarked) [EXAMPLE 10, 2-adamantyl 3-benzylpyrrolidine-1-carboxylate], the IC50 [2] is reported as under 100 nM.

`Cc1ccccc1C1(CC(=O)O)CCN(C(=O)OC2C3CC4CC(C3)CC2C4)CC1` (centres unmarked) [EXAMPLE 12, 2-(1-(2-adamantyloxycarbonyl)-4-o-tolylpiperidin-4-yl)acetic acid] gave an IC50 [2] of 100 to 1000 nM.

With `CCOC(=O)C1(Cc2ccccc2)CCCN(C(=O)OC2C3CC4CC(C3)CC2C4)C1` (centres unmarked) [EXAMPLE 13, 1-(2-adamantyl) 3-ethyl 3-benzylpiperidine-1,3-dicarboxylate] the IC50 [2] was under 100 nM.

`O=C(OC1C2CC3CC(C2)CC1C3)N1CCC(N2C(=O)Cc3ccccc32)CC1` (centres unmarked) [EXAMPLE 27, 2-adamantyl 4-(2-oxoindolin-1-yl)piperidine-1-carboxylate] gave an IC50 [2] of under 100 nM.

Work on `COC(=O)Cn1c(=O)n([C@H]2CCN(C(=O)O[C@H]3C4CC5CC3C[C@](C(N)=O)(C5)C4)C2)c2ccc(F)cc21` [EXAMPLE 72, (S)-trans-1-carbamoyl-4-adamantyl 3-(5-fluoro-3-(2-methoxy-2-oxoethyl)-2-oxo-2,3-dihydro-1H-benzo[d]imidazol-1-yl)pyrrolidine-1-carboxylate] yielded an IC50 [3, 4] of under 100 nM, an IC50 ([3]; read-out: IC50) of 7.11 nM and an inhibition at 0.1 µM [3] of 84.9%.

In the case of `NC(=O)[C@]12CC3CC(C1)[C@@H](OC(=O)N1CC[C@H](n4c(=O)n(CCO)c5cc(F)ccc54)C1)C(C3)C2` [EXAMPLE 73, (S)-trans-1-carbamoyl-4-adamantyl 3-(5-fluoro-3-(2-hydroxyethyl)-2-oxo-2,3-dihydro-1H-benzo[d]imidazol-1-yl)pyrrolidine-1-carboxylate], the IC50 [3, 4] is reported as under 100 nM, the IC50 ([3]; read-out: IC50) is reported as 4.52 nM and the inhibition at 0.1 µM [3] is reported as 93%.

With `Cc1nc2cc(C#N)ccc2n1[C@H]1CCN(C(=O)OC2C3CC4CC2CC(C(N)=O)(C4)C3)C1` (stereo partly drawn) [EXAMPLE 75, (S)-1-carbamoyl-4-adamantyl 3-(5-cyano-2-methyl-1H-benzo[d]imidazol-1-yl)pyrrolidine-1-carboxylate] the IC50 [3, 4] was under 100 nM, the IC50 ([3]; read-out: IC50) was 5.03 nM and the inhibition at 0.1 µM [3] was 39.1%.

For `Cc1nc2cccc(Cl)c2n1[C@H]1CCN(C(=O)OC2C3CC4CC2CC(C(N)=O)(C4)C3)C1` (stereo partly drawn) [EXAMPLE 76, (S)-1-carbamoyl-4-adamantyl 3-(7-chloro-2-methyl-1H-benzo[d]imidazol-1-yl)pyrrolidine-1-carboxylate], the IC50 [3, 4] was under 100 nM, the IC50 ([3]; read-out: IC50) was 1.11 nM and the inhibition at 0.1 µM [3] was 93.6%.

Compound `N#Cc1ccc(=O)n([C@@H]2CCN(C(=O)OC3C4CC5CC3CC(O)(C5)C4)C2)c1` (stereo partly drawn) [Example 77, (R)-3-(5-Cyano-2-oxo-2H-pyridin-1-yl)-pyrrolidine-1-carboxylic acid 5-hydroxy-adamantan-2-yl ester] has an IC50 [1] of over 10000 nM.

Work on `N#Cc1ccnc(O[C@@H]2CCN(C(=O)OC3C4CC5CC3CC(O)(C5)C4)C2)c1` (stereo partly drawn) [Example 79, (R)-3-(4-Cyano-hyridin-2-yloxy)-pyrrolidine-1-carboxylic acid 5-hydroxy-adamantan-2-yl ester] yielded an IC50 [1] of over 10000 nM.
